Experimental data as given in patent US20230372364A1, “METHOD OF TREATING GABA MEDIATED DISORDERS” (Eliem Therapeutics (UK) Ltd, priority 2020, published 2023).

What was measured:
[1] = Further pharmacokinetic analysis of Phase 1 human dosing exposure studies; type: in vivo
CYP2C8 = target: T1, CYP2C8 (Homo sapiens, UniProt P10632); test: Repaglinide drug-drug interaction in humans; type: in vivo; settings: repaglinide exposure after 14 day repeat doses
T1 construct: from tissue; host or cells: human volunteers in vivo (endogenous, mainly hepatic, enzyme: own knowledge)
T1 sequence (P10632 1-490): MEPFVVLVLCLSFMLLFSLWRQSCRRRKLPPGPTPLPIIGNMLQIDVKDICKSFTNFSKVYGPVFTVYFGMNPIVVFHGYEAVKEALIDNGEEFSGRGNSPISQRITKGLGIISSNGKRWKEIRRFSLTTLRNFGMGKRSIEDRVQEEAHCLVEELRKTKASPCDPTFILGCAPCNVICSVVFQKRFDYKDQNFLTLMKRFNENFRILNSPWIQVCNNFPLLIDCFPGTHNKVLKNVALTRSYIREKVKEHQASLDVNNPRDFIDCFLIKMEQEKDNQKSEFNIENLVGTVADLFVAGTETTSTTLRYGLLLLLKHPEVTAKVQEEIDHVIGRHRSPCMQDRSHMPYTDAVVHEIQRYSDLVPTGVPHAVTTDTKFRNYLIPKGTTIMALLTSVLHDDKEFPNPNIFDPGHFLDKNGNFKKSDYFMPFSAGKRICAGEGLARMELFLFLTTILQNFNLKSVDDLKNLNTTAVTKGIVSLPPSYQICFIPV

[2] = Human equivalent dose and allometric scaling of anticipated human exposure; settings: 60 kg participant
Protocol: Justification for Dose—Based on the nonclinical toxicology data, there is not an unreasonable risk of adverse effects. Using the FDA guidance “Estimating the Maximum Safe Starting Dose in Initial Clinical Trials for Therapeutics in Adult Healthy Volunteers” (July, 2005), the calculated human equivalent dose would be 1/2 mg/kg/day or 3/24 mg/kg/day, respectively, based on the 28-day rat no-observed-adverse-effect-level dose of 7.5 mg/kg/day or the 28-day dog no-observed-adverse-effect-level dose of 6 mg/kg/day, respectively. For both species the no-observed-adverse-effect-level dose was the highest dose tested. For a 60 kg participant, this would result in a maximum safe starting dose of (human equivalent dose/10) of 7.2 mg/day or 19/6 mg/day. The starting doses in this Phase 1 study are 5 mg, equivalent to […] for a 60 kg participant. […] These anticipated Cmax and AUC values are ˜80- and 50-fold lower, respectively, than that observed at the no-observed-adverse-effect-level dose in dogs.

[3] = target: α4β3δ Extra synaptic receptors (GABAA) (Homo sapiens, UniProt P28472+P48169); test: GABAA receptor potency and efficacy (EC50, Emax), α4β3δ; type: cell-based
Sequence of α4β3δ Extra synaptic receptors (GABAA) (P48169 36-554): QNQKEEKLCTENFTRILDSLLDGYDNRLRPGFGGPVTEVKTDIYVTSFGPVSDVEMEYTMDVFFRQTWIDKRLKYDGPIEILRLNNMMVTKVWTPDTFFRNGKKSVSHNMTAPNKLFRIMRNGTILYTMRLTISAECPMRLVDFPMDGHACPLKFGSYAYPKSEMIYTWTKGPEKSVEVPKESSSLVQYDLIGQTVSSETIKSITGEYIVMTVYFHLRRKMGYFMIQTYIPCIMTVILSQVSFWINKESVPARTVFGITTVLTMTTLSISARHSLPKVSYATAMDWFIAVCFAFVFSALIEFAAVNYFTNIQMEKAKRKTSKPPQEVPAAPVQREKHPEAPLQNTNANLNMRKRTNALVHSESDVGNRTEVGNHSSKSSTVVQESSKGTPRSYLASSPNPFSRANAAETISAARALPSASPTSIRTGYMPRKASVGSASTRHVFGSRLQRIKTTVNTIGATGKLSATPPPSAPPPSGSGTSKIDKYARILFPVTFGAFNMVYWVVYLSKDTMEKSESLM
Sequence of α4β3δ Extra synaptic receptors (GABAA) (P28472 26-473): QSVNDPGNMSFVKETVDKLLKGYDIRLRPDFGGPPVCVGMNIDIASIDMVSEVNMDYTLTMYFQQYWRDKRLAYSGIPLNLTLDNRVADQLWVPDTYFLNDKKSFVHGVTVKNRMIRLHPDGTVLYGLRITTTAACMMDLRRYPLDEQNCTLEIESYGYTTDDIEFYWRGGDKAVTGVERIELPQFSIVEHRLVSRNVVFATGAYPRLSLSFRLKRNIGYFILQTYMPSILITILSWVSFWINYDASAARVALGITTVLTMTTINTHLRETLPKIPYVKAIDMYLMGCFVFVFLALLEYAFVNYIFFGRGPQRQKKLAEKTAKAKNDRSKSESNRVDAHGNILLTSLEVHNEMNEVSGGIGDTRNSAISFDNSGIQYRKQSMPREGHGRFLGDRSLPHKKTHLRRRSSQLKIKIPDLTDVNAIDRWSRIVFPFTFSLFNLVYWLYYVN
Sequence of α4β3δ Extra synaptic receptors (GABAA) (O14764 25-452 partner): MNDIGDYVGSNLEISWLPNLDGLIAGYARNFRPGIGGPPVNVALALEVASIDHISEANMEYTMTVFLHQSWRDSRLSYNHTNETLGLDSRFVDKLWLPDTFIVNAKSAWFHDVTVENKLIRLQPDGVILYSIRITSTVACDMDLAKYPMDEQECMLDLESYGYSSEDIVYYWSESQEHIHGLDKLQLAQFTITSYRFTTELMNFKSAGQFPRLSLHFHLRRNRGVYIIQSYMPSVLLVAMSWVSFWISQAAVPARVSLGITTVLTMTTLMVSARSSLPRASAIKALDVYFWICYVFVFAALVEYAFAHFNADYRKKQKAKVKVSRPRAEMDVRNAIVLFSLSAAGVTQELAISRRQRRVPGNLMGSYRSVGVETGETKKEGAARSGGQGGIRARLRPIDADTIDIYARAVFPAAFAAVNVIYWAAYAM

With C[C@@]1(O)CC[C@@]2(C)[C@@H](CC[C@@H]3[C@@H]2CC[C@]2(C)[C@@H](C(=O)Cn4cc(C#N)cn4)CC[C@@H]32)C1 [CV-10155, 1-[2-[(3R,5S,8R,9S,10S,13S,14S,17S)-3-hydroxy-3,10,13-trimethyl-1,2,4,5,6,7,8,9,11,12,14,15,16,17-tetradecahydrocyclopenta[a]phenanthren-17-yl]-2-oxoethyl]pyrazole-4-carbonitrile] the elimination in urine [1] was < 1 % of the dose, the “accumulation ratio based on AUC” value ([1]; once daily administration) was “approximately 2” and the “daily dose by which steady state was achieved” value ([1]; once daily administration, visual inspection of mean concentrations) was “eighth”. The Tmax ([1]; plasma, Phase 1, after oral administration) was 3 to 4 h, the half-life ([1]; plasma, oral, Phase 1, both after single and repeat administration, read-out: terminal half-life (converted)) was ~2400 min and the “DDI inhibitory effect at CYP2C8 level” value (CYP2C8) was “no or minimal DDI inhibitory effect”. The “maximum safe starting dose (human equivalent dose/10)” value ([2]; from dog NOAEL) was 19/6, the “maximum safe starting dose (human equivalent dose/10)” value ([2]; from rat NOAEL) was 7.2 mg/day and the “fold higher efficiency at extra synaptic vs. synaptic channels” value [3] was 3 fold. The “preferential modulation of α4β3δ subtype compared to α1β2γ2 subtype” value ([3]; isomerically pure compositions) was “preferentially modulate”.
